# According to patent US20240148675A1, “TOPICAL COMPOSITIONS AND METHODS FOR TREATMENT” (Atossa Therapeutics, Inc., priority 2017, published 2024):
# Key:
# [1] = Stability of endoxifen free base in polar organic solvents in the absence and presence of skin; format: physicochemical; conditions: for potency and stability in the solvents in the presence of skin: compared with potency in absence of skin after 2 days; for % Potency: relative to initiation of study
# Method: (§1) HPLC-UV. Briefly, (E)- and (Z)-endoxifen were analyzed by High Performance Liquid Chromatography, HPLC (instrument: Agilent 1100) using a UV detector (Agilent). Chromatographic resolution was obtained using a Luna Phenyl Hexyl Column ([…]×150 mm) at a column temperature of 40° C. Samples were injected in an injection volume of 10 ul and run at a flow rate of 1.0 ml/min. The mobile phase system used consisted of: A) water with 10 mM ammonium formate (HCOONH4) with 0.03% formic acid and B) Methanol with 10 mM ammonium formate (HCOONH4).
# The stability studies of endoxifen free base in various pure polar organic solvents/MPEs were performed as described below. Accelerated stability studies of (Z)-endoxifen free base in solvents/MPEs were performed over a course of 2 days at 45° C. in both the presence and the absence of human cadaver skin to assess the degree to which the (Z)-endoxifen conversion to (E)-endoxifen by isomerization and or chemical degradation of the endoxifen is accelerated upon contact with skin and skin components. (Z)-Endoxifen solutions at ˜80% of saturation concentrations were prepared in 1 ml batches in solvents as listed below in the Table 3. The potencies of (Z)-endoxifen and (E)-endoxifen were determined by HPLC-UV analysis as described above. Potency results are shown compared with potencies measured when the sample were stored at the initiation of stability study.
# [2] = aqueous medium, 45° C., day 15, starting from 98%; cited from earlier work
# [3] = Solubility of (Z) and (E)-endoxifen in polar organic solvents (HPLC-UV); format: physicochemical
# Method: (Z)-endoxifen free base was synthesized as described above in Example 1. (Z)-endoxifen was solubilized in various solvents as provided in Table 1, and tested for physical and chemical stability in solution. The solutions were prepared in ˜1 ml batches typically for solubility and stability testing. The mixture was stirred overnight on a rotisserie at room temperature. The next, […], the suspension was filtered using a syringe filter (0.2 um pore size GHP membrane). The filtrated solution was then analyzed for the concentration of (Z)-endoxifen and (E)-endoxifen as using a validated HPLC-UV method as described below.
# as §1
# UV detection of (E)-endoxifen and (Z)-endoxifen isomers was performed at 243 nm with a run time of 30 minutes. Retention times for (E)-endoxifen and (Z)-endoxifen were 15.14 m and 16.25 m respectively. […]
# [4] = in Diethyl Sebacate, 45° C. + skin (human cadaver), 2 days
# [5] = in Diethylene glycol monoethyl ether, 45° C. + skin (human cadaver), 2 days
# [6] = in Dimethyl Isosorbide, 45° C. + skin (human cadaver), 2 days
# [7] = in Dipropylene Glycol, 45° C. + skin (human cadaver), 2 days
# [8] = in Isopropyl Myristate, 45° C. + skin (human cadaver), 2 days
# [9] = in PEG 300, 45° C. + skin (human cadaver), 2 days
compound,measurement,setting,value
CC/C(=C(/c1ccc(O)cc1)c1ccc(OCCNC)cc1)c1ccccc1 [(E)-endoxifen free base],potency and stability in the solvents in the presence of skin,[1]; 45° C.,maintained potency and stability
same,% Potency,[1]; [4],99%
same,% Potency,[1]; [5],98%
same,% Potency,[1]; [6],16%
same,% Potency,[1]; [7],95%
same,% Potency,[1]; [8],68%
same,% Potency,[1]; [9],92%
CC/C(=C(\c1ccc(O)cc1)c1ccc(OCCNC)cc1)c1ccccc1.Cl [(Z)-endoxifen HCl],(Z)-endoxifen remaining after degradation,[2],75%
"CC/C(=C(\c1ccc(O)cc1)c1ccc(OCCNC)cc1)c1ccccc1 [(Z)-endoxifen free base, (Z)-4-(1-(4-(2-(methylamino)ethoxy)phenyl)-2-phenylbut-1-enyl)phenol]",potency and stability in the solvents in the presence of skin,[1]; 45° C.,maintained potency and stability
same,% Potency,[1]; [4],94%
same,% Potency,[1]; [5],98%
same,% Potency,"[1]; in Diisopropyl Adipate, 45° C. + skin (human cadaver), 2 days",99%
same,% Potency,[1]; [6],17%
same,% Potency,[1]; [7],94%
same,% Potency,[1]; [8],63%
same,% Potency,[1]; [9],92%
same,stability of (Z)-endoxifen in polar organic solvents,[3]; polar organic solvents of Table 1,surprisingly stable
"CC/C(=C(\c1ccc(O)cc1)c1ccc(OCCNC)cc1)c1ccccc1 [Total Endoxifen free base, (E/Z)-4-[1-[4-[2-(Methylamino)ethoxy]phenyl]-2-phenyl-1-buten-1-yl]-phenol]",stability of dissolved endoxifen,"[1]; dissolved in dimethyl isosorbide and isopropyl myristate, 2 days, 45° C.",poor stability
same,solubility in polar organic solvents/MPEs,"[3]; DMSO, ethanol, diethylene monoethyl ether, and oleic acid",significantly soluble
